In the supplement of paper PMC10307832:

How the values were obtained:
Experiment in all cases: relative viability (nuclei count vs DMSO), 5 days (fraction); higher = more cells survive
[1] = compound: Cc1cnc(CNC(=O)c2c(=O)c3ccc(N4CCCN(C)CC4)nc3n3c2sc2ccccc23)cn1 [CX-5461] + COc1cccc2cc(-c3nc([C@H]4CC[C@H](C(=O)O)CC4)n4ncnc(N)c34)[nH]c12 [OSI-027] (partner 0.5 µM)
In short: (§1)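 Lung cancer cell lines were pin-tool dosed in 1536-well plates on the day after seeding, with either a lone drug or a fixed anchor-drug dose plus five library-drug doses (not always all listed) in √10 steps. Nuclei were counted on 4× images after 5 days. Relative viability is the ratio of treated-well to vehicle-well nuclei counts, with each value a median of duplicate plates.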

[2] = compound: Cc1cnc(CNC(=O)c2c(=O)c3ccc(N4CCCN(C)CC4)nc3n3c2sc2ccccc23)cn1 [CX-5461] + C[C@]1(O)C[C@@H](c2nc(-c3ccc4ccc(-c5ccccc5)nc4c3)c3c(N)nccn32)C1 [Linsitinib] (partner 1 µM)
In short: as §1

[3] = compound: Cc1cnc(CNC(=O)c2c(=O)c3ccc(N4CCCN(C)CC4)nc3n3c2sc2ccccc23)cn1 [CX-5461] + N=C(N)NC(=N)NCCc1ccccc1 [Phenformin] (partner 250 µM)
In short: as §1

[4] = compound: O=C(Nc1cc(C(F)(F)F)cc(C(F)(F)F)c1)c1cc(Cl)ccc1O [IMD-0354] + CCNC(=O)c1noc(-c2cc(C(C)C)c(O)cc2O)c1-c1ccc(CN2CCOCC2)cc1 [Luminespib] (partner 0.01 µM)
In short: as §1

| Cell Line | relative viability ([1]; first compound 0.01 µM) | relative viability ([1]; first compound 0.03162 µM) | relative viability ([1]; first compound 0.1 µM) | relative viability ([1]; first compound 0.3162 µM) | relative viability ([1]; first compound 1 µM) | relative viability ([2]; first compound 0.01 µM) | relative viability ([2]; first compound 0.03162 µM) | relative viability ([2]; first compound 0.1 µM) | relative viability ([2]; first compound 0.3162 µM) | relative viability ([2]; first compound 1 µM) | relative viability ([3]; first compound 0.01 µM) | relative viability ([3]; first compound 0.03162 µM) | relative viability ([3]; first compound 0.1 µM) | relative viability ([3]; first compound 0.3162 µM) | relative viability ([3]; first compound 1 µM) | relative viability ([4]; first compound 0.04 µM) | relative viability ([4]; first compound 0.1265 µM) | relative viability ([4]; first compound 0.4 µM) | relative viability ([4]; first compound 1.265 µM) | relative viability ([4]; first compound 4 µM) |
| --- | --- | --- | --- | --- | --- | --- | --- | --- | --- | --- | --- | --- | --- | --- | --- | --- | --- | --- | --- | --- |
| 201T | 0.911 | 0.669 | 0.726 | 0.502 | 0.552 | 1.05 | 0.995 | 1.03 | 1.02 | 0.993 | 0.468 | 0.431 | 0.464 | 0.441 | 0.388 | 1.19 | 1.04 | 0.678 | 0.638 | 0.278 |
| NCI-H2126 | 0.75 | 0.684 | 0.717 | 0.783 | 0.63 | 0.728 | 0.727 | 0.71 | 0.731 | 0.679 | 0.576 | 0.542 | 0.513 | 0.589 | 0.407 | 0.866 | 0.867 | 0.55 | 0.27 | 0.213 |
| HOP-62 | 0.824 | 0.941 | 0.83 | 0.93 | 0.594 | 1.08 | 0.813 | 0.922 | 0.858 | 0.997 | 0.743 | 0.713 | 0.742 | 0.572 | 0.472 | 0.998 | 0.864 | 0.53 | 0.509 | 0.166 |
| CAL-12T | 0.587 | 0.693 | 0.389 | 0.679 | 0.347 | 0.874 | 1.05 | 0.843 | 0.868 | 0.622 | 0.643 | 0.653 | 0.328 | 0.531 | 0.35 | 0.432 | 0.434 | 0.338 | 0.126 | 0.172 |
| NCI-H520 | 0.193 | 0.247 | 0.24 | 0.197 | 0.266 | 0.877 | 0.916 | 0.934 | 0.889 | 0.701 | 0.577 | 0.503 | 0.717 | 0.303 | 0.36 | 0.199 | 0.21 | 0.198 | 0.243 | 0.225 |
| NCI-H1755 | 0.732 | 0.736 | 0.713 | 0.646 | 0.655 | 0.983 | 1.05 | 0.968 | 0.993 | 1.01 | 0.603 | 0.637 | 0.615 | 0.56 | 0.493 | 0.321 | 0.515 | 0.312 | 0.456 | 0.289 |
| NCI-H2023 | 0.387 | 0.386 | 0.184 | 0.329 | 0.0856 | 0.661 | 0.744 | – | 0.599 | 0.162 | 0.374 | 0.335 | 0.194 | 0.294 | 0.0701 | 1.03 | 0.799 | 0.292 | 0.0846 | 0.121 |
| NCI-H2009 | 0.696 | 0.651 | 0.471 | 0.697 | 0.516 | 1.24 | 1.14 | 1.18 | 1.19 | 0.804 | 0.501 | 0.441 | 0.24 | 0.472 | 0.282 | 1.09 | 0.923 | 0.675 | 0.148 | 0.159 |
